Data reported in patent publication US20240173324A1, “COMBINATORY THERAPY FOR PREVENTING, INHIBITING, TREATING, OR REDUCING ANEURYSMS” (The Regents of the University of California, priority 2021, published 2024).
“And” between values parts separate entries of the source, which are not always exact repeats. Equal entries are not always repeated.

How the values were obtained:
AAA formation = conditions: both low and high dose of Nifedipine alone; earlier study; cited from earlier work
[1] = test system: Ang II infused apoE null mice; test: Incidence of AAA in Ang II infused apoE null mice (ultrasound and post-mortem inspection); type: in vivo
Text: The use of animals and experimental procedures were approved by the Institutional Animal Care and Usage Committee (IACUC) at the University of California Los Angeles (UCLA). Breeders of apoE null mice were purchased from Jackson Labs (Bar Harbor, ME, Strain B6.129P2-ApoEtmlUnc/J), and bred in house. Animals were kept in ventilated cages, with free access to water and standard chow under the standard care of Division of Laboratory Animal Medicine (DLAM) staff. Male apoE null mice of 6-8 months old were used for experimentation.
The animals receiving Ang II infusion were anesthetized in an isoflurane chamber with 5% isoflurane, and then moved to a nose cone with sustained supply of 1.5-2% isoflurane to maintain the anesthetic state. The back area between the shoulder blades was cleaned of hair and disinfected. Then a small incision was made at the cleaned site; the osmotic minipump (Alzet, model 2004) containing Ang II (1000 ng/kg/min, Sigma-Millipore, St. Louis, MO, USA) was subcutaneously implanted into the mice. The surgical wounds were closed with surgical staples, and then animals were allowed to recover in a heated cage.
At the end of the study period of 4 weeks, animals were euthanized with CO2. The aortas were rapidly removed from the body, rinsed with ice cold Krebs/HEPES buffer, and cleaned of connective tissue and fat. The incidence of AAA was determined by ultrasound assessment of abdominal aortic expansion as described above, and by direct inspection of the abdominal aortas post-mortem.

[2] = test system: Ang II infused apoE null mice; test: Ultrasound detection of abdominal aortic size (enlargement of abdominal aortas); type: in vivo; conditions: FA 15 mg/kg/day oral; weekly ultrasound over 4 weeks; vs. apoE+Ang II
Experimental: The back area between the shoulder blades was cleaned of hair and disinfected. Then a small incision was made at the cleaned site; the osmotic minipump (Alzet, model 2004) containing Ang II (1000 ng/kg/min, Sigma-Millipore, St. Louis, MO, USA) was subcutaneously implanted into the mice. The surgical wounds were closed with surgical staples, and then animals were allowed to recover in a heated cage. […] The enlargement of abdominal aortas in various experimental groups was monitored using ultrasound. Animals were anesthetized with isoflurane and placed on a temperature-controlled table. Isoflurane levels were adjusted throughout the experiment to maintain heart rate between 400 and 500 bpm while keeping the animal sufficiently anesthetized. Hair was removed from the abdomen using a hair removal cream, and preheated ultrasound transmission gel was applied onto the abdomen area. An ultrasound probe was placed on the gel to visualize aorta transversely (Vevo 2100, MS400, 30 MHz. FUJIFILM VisualSonics, Inc., Toronto, Ontario, Canada). The aorta was identified using Doppler measurement for the presence of pulsatile flow.

[3] = test system: Ang II infused apoE null mice; test: H&E staining of aortic sections, vascular remodeling; type: in vivo; conditions: FA 15 mg/kg/day oral
Text: To examine the extent of the vascular remodeling that occurred during AAA in the presence of various treatments, freshly isolated aortas were embedded in paraffin, sectioned and stained with hematoxylin-eosin (H&E).
At the end of the study period of 4 weeks, animals were euthanized with CO2. The aortas were rapidly removed from the body, rinsed with ice cold Krebs/HEPES buffer, and cleaned of connective tissue and fat. […] For histological analyses, small sections (5 mm) of the abdominal aortas of the suprarenal region were removed and fixed in 4% paraformaldehyde overnight, followed by incubation for 24 hours in 10% sucrose, and then embedded in paraffin. In the case of AAA, a center section of the AAA was used for these analyses. Sections were sliced at 5μm at UCLA Pathology Core, and subjected to hematoxylin-eosin (H&E) staining following standard protocol.

[4] = test system: Ang II infused apoE null mice; test: Verhoeff-Van Gieson (VVG) staining, medial elastin degradation; type: in vivo; conditions: FA 15 mg/kg/day oral
Experimental: To assess medial elastin degradation, VVG staining was performed using aortic sections from all experimental groups.
Paraffin embedded aortic sections were deparaffinized by sequential washes in xylene (2x), descending ethanol from 100%, 90%, 75% to 50%, and distilled water. Sections were stained in Verhoeff s solution for 70 min, followed by differentiation in 2% ferric chloride for 90 seconds. Sections were incubated with 5% sodium thiosulfate for 60 seconds, followed by counterstaining with Van Gieson's solution. Sections were then subjected to dehydration with 95% and 100% alcohol, and finally washed in xylene. After drying, sections were mounted with Permount mounting media (SP15-100, Thermo-Fisher Scientific, Pittsburgh, PA, USA), and images captured by a Nikon TE2000-U fluorescent microscope.

[5] = test system: total superoxide production in aortas; test: Electron spin resonance determination of total aortic superoxide production; type: in vivo, mice; conditions: FA 15 mg/kg/day oral; ESR
Text: Therefore, changes in aortic total superoxide production and eNOS uncoupling activity from all treatment groups is examined herein. Freshly prepared aortic lysates were subjected to electron spin resonance (ESR) determination of superoxide production with and without L-NAME, an inhibitor of NOS. If eNOS is functional and coupled, its inhibition by L-NAME will increase the measured superoxide, as eNOS is producing NO to scavenge superoxide. However, if eNOS is dysfunctional, uncoupled and producing superoxide, its inhibition with L-NAME will lead to a decrease in measured superoxide.
Aortic superoxide production was determined by electron spin resonance (ESR). In brief, freshly isolated aortas were homogenized in lysis buffer containing 1:100 protease inhibitor cocktail (MilliporeSigma, P8340), centrifuged at 12,000 rpm for 15 min, and protein supernatant collected. After determination of protein concentration using a protein assay kit (Bio-Rad), five μg of the protein was loaded into ice-cold and nitrogen bubbled modified Krebs/HEPES buffer (KHB, in mmol/L: NaCl 99; KCl 4.7; MgSO41.2; KH2PO4 1.0; CaCl2 1.9; NaHCO3 25; glucose 11.1, NaHEPES 20) containing diethyldithiocarbamic acid (5 mmol/L), deferoxamine (25 mmol/L), and the superoxide specific spin trap methoxycarbonyl-2,2,5,5-tetramethylpyrrolidine (CMH, 500 μmol/L, Axxora, San Diego, CA, USA). […]

aortic H4B = test: HPLC determination of aortic H4B bioavailability; type: in vivo, mice; conditions: FA 15 mg/kg/day oral
Experimental: After centrifugation, 10 μl of the supernatant was injected into a HPLC system equipped with a fluorescent detector (Schimadzu America Inc, Carlsbad, CA, USA). Excitation and emission wavelengths of 350 nm and 450 nm were used to measure H4B levels.

[6] = test system: Ang II infused hph-1 mice; conditions: oral FA administration; cited from earlier work
[7] = test system: Ang II-infused apoE null mice; conditions: oral FA administration, previously observed; cited from earlier work
[8] = test system: Fbnic1^C1039G/+ Marfan Syndrome (MFS) mice; conditions: FA diet; cited from earlier work

Compound | AAA formation (AAA formation) | incidence of AAA ([1]; FA 15 mg/kg/day oral in chow, 4 weeks Ang II infusion, Ang II alone 85.71%) | numbers of animals developed AAA and animals examined ([1]; FA 15 mg/kg/day, b210 developed out of examined, b50 examined/developed) | enlargement of abdominal aortas [2] | vascular remodeling featured by elastic degradation and adventitial hypertrophy [3] | elastin degradation featured by flattening and breakdown [4] | total superoxide production in aortas [5] | Ang II induced H4B deficiency (aortic H4B) | AAA formation [6] | aneurysm formation [7] | formation of TAA and AAA [8]
COC(=O)C1=C(C)NC(C)=C(C(=O)OC)C1c1ccccc1[N+](=O)[O-] [Nifedipine] | able to attenuate AAA formation | – | – | – | – | – | – | – | – | – | –
Nc1nc2ncc(CNc3ccc(C(=O)N[C@@H](CCC(=O)O)C(=O)O)cc3)nc2c(=O)[nH]1 [FA, folic acid] | – | 18.75% | 6 out of 32 and 32/6 | significantly attenuated | markedly attenuated | significantly attenuated | markedly abrogated | significantly abrogated | markedly attenuated | abrogated aneurysm formation | attenuated formation of TAA and AAA
